Drawing on ChEMBL document CHEMBL1909046, “DrugMatrix in vitro pharmacology data”, this text covers IC50 and Ki for 13 compounds.

A short description of series [1]: DRUGMATRIX: Sigma2 radioligand binding (ligand: [3H] Ifenprodil). The format is cell membranes, Rattus norvegicus, Wistar, Brain, Membrane. To be noted: Not Active = under 50% inhibition at 10 µM.
In the next series the target is Nitric oxide synthase 1 (Rattus norvegicus, UniProt P29476). The format is tissue-based, Cerebellum. Further: in other assays of this panel Not Active means under 50% inhibition at 10 µM.
A further series concerns the target T1, Progesterone receptor (Bos taurus, UniProt Q690N0).
T1 sequence (Q690N0 whole entry): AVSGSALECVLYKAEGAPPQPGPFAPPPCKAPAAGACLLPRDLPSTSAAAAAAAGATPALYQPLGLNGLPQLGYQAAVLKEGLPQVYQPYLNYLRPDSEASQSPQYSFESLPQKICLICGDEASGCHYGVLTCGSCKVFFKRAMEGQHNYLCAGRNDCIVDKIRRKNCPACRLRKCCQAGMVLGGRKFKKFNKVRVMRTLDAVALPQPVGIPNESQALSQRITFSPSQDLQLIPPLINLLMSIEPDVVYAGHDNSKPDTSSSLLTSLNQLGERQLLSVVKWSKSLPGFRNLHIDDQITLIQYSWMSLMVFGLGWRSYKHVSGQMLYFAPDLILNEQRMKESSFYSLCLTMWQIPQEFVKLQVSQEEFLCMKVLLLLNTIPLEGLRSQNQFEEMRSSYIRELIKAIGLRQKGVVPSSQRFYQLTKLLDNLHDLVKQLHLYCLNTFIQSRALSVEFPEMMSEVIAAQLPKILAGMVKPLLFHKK
The series is described as follows: DRUGMATRIX: Progesterone radioligand binding (ligand: [3H] R-5020). The format is tissue-based, Uterus. The note with it: Not Active = under 50% inhibition at 10 µM.

The next series concerns the target T2, Interstitial collagenase (Homo sapiens, UniProt P03956).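 Further: MMP-1 enzyme inhibition assay using a peptide substrate; in other assays of this panel Not Active means under 50% inhibition at 10 µM.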
T2 sequence (P03956 whole entry): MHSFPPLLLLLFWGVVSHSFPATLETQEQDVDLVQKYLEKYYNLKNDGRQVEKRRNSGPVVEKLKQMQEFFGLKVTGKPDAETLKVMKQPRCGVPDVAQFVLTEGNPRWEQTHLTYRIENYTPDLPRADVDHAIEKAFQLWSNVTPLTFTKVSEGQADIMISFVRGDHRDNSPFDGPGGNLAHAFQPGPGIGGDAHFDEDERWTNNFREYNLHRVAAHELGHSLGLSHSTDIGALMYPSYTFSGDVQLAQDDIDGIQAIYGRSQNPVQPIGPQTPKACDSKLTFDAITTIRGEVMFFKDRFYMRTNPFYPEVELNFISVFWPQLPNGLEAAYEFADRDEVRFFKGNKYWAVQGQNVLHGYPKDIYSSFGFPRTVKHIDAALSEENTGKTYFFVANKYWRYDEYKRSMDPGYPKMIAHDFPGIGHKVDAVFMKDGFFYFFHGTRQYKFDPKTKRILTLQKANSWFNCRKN
Briefly: biochemical. The format is tissue-based, Rheumatoid synovial fibroblasts.

Another series has as its target T3, Cytochrome P450 1A2 (Homo sapiens, UniProt P05177). Further: in other assays of this panel Not Active means under 50% inhibition at 10 µM.
T3 sequence (P05177 whole entry): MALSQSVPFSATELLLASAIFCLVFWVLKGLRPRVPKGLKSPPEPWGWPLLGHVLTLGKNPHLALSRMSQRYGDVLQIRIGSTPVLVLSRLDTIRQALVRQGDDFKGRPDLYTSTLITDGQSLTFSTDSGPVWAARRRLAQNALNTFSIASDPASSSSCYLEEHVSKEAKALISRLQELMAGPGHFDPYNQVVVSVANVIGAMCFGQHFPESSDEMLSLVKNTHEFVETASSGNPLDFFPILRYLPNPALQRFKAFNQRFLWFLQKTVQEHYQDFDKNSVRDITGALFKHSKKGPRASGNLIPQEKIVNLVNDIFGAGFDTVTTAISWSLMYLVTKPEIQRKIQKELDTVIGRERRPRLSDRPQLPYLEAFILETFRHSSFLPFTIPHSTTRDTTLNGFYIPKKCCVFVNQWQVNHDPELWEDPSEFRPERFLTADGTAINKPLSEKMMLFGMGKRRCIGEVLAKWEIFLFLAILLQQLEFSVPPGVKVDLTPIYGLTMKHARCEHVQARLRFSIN
To be noted: bti-tn-5b1-4.

The target in the next series is Cytochrome P450 2C19 (Homo sapiens, UniProt P33261). The note with it: bti-tn-5b1-4. Further: in other assays of this panel Not Active means under 50% inhibition at 10 µM.
The next series deals with T4, Glucocorticoid receptor (Homo sapiens, UniProt P04150).
T4 sequence (P04150 whole entry): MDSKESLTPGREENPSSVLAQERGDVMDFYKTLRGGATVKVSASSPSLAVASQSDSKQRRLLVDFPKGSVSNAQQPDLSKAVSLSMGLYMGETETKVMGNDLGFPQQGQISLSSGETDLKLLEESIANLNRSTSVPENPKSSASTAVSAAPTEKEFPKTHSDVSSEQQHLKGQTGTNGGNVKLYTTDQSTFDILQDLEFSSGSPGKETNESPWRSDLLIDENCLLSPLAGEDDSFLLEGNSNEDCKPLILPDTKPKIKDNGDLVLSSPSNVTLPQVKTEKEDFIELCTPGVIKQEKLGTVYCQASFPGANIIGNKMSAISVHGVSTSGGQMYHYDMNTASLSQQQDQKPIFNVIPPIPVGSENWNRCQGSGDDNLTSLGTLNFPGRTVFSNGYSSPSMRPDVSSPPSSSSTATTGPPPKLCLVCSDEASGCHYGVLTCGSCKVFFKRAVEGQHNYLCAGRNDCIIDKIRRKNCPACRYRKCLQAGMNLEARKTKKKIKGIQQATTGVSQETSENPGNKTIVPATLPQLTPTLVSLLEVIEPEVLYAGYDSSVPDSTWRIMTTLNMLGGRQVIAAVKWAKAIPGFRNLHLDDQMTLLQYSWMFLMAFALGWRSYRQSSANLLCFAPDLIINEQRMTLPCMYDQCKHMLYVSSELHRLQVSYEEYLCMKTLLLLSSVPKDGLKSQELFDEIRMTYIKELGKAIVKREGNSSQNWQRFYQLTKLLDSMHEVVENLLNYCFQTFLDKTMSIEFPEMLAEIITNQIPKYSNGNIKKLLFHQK
The note with it: hela s3.

Cytochrome P450 2C19, sequence (P33261 whole entry): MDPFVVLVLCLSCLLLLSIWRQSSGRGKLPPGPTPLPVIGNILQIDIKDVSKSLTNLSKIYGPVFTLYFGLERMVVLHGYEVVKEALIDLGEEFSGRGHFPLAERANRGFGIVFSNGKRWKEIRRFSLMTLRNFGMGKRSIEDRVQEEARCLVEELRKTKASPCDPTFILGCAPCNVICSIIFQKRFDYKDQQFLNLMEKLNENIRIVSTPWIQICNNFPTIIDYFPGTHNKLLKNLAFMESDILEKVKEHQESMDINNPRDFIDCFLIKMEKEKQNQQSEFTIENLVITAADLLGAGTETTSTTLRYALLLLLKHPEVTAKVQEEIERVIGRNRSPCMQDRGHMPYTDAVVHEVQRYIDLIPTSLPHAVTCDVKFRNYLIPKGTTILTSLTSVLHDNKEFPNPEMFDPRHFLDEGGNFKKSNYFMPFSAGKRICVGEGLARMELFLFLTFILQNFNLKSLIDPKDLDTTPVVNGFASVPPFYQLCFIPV
Nitric oxide synthase 1, sequence (P29476 whole entry): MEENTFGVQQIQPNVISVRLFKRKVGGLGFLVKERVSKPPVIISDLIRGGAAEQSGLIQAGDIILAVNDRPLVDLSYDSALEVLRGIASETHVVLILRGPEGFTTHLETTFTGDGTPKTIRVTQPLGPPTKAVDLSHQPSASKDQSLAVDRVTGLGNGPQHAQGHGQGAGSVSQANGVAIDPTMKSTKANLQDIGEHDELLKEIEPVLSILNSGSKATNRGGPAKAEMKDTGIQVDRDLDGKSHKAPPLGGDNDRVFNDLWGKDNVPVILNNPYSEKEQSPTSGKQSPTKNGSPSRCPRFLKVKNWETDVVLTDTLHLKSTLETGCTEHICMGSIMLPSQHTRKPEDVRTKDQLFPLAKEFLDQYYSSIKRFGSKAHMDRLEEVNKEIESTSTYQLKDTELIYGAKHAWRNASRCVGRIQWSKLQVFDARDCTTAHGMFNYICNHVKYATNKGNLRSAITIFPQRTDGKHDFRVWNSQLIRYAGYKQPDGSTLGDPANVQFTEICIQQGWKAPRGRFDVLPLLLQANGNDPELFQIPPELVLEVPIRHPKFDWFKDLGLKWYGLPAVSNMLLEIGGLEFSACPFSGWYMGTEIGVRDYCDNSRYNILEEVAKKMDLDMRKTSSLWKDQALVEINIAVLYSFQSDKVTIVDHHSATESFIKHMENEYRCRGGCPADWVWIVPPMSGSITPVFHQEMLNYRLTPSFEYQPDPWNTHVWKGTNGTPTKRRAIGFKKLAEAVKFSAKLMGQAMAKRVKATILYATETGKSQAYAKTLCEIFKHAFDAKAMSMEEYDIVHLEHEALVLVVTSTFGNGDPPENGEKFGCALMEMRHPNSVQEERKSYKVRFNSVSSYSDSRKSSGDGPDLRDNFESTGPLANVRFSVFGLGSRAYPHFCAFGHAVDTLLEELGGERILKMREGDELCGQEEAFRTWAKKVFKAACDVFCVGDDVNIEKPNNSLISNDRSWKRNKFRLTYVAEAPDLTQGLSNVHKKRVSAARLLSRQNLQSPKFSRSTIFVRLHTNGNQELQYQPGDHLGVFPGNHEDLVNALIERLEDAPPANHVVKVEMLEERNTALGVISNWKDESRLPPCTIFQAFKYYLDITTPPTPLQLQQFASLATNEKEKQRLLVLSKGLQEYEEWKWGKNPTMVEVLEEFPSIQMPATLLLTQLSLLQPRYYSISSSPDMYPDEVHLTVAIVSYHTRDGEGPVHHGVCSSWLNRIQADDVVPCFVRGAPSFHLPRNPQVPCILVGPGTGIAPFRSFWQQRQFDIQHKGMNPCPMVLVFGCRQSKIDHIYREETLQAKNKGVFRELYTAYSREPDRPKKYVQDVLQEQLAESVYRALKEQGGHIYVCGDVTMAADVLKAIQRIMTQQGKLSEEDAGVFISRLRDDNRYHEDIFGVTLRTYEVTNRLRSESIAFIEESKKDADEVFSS

Broadly, the IC50 is the concentration that gives 50% inhibition. What is called Ki is a dissociation constant, usually derived from enzyme kinetics or from competition with a known ligand. Turning to `Nc1nc(N)nc(-c2cc(Cl)ccc2Cl)n1.O=C(O)/C=C\C(=O)O` [IRSOGLADINE MALEATE], the half-inhibitory concentration (IC50) result (in series [1]; at Nitric oxide synthase 1; on Progesterone receptor; on Interstitial collagenase; against Cytochrome P450 1A2; against Cytochrome P450 2C19) was “Not Active” in each case. Besides, the IC50 entry against Glucocorticoid receptor is listed as “Not Active”. The Ki result (in series [1]; on Cytochrome P450 1A2; on Cytochrome P450 2C19) was “Not Active” each time.
As to `O=c1[nH]c(=O)n([C@H]2C[C@H](O)[C@@H](CO)O2)cc1I` [IDOXURIDINE], the IC50 entry (in series [1]; against Nitric oxide synthase 1; at Progesterone receptor; on Interstitial collagenase; against Cytochrome P450 1A2; against Cytochrome P450 2C19) was “Not Active” in each case. Moreover, the IC50 entry on Glucocorticoid receptor is “Not Active”. For the same compound, the inhibition constant (Ki) entry (in series [1]; on Cytochrome P450 1A2; on Cytochrome P450 2C19) was “Not Active” in each case.
Turning to `CCC1(c2ccc(N)cc2)CCC(=O)NC1=O` (centres undefined) [AMINOGLUTETHIMIDE], the IC50 result (in series [1]; against Nitric oxide synthase 1; on Progesterone receptor; on Interstitial collagenase; at Cytochrome P450 1A2; at Cytochrome P450 2C19) was “Not Active” throughout. Further, the IC50 entry at Glucocorticoid receptor was “Not Active”. The Ki result (in series [1]; on Cytochrome P450 1A2; at Cytochrome P450 2C19) was “Not Active” each time.
With `C=C(C)C1(O)OC(=O)C=C1OC` (centres undefined) [PENICILLIC ACID], the IC50 entry (in series [1]; against Nitric oxide synthase 1; on Progesterone receptor; at Interstitial collagenase; at Cytochrome P450 1A2; at Cytochrome P450 2C19) was “Not Active” in each case. In addition, the IC50 result at Glucocorticoid receptor was “Not Active”. Besides, the Ki result (in series [1]; on Cytochrome P450 1A2; at Cytochrome P450 2C19) was “Not Active” throughout.
For the compound `C1CCC(C(CC2CCCCN2)C2CCCCC2)CC1` (centres undefined) [PERHEXILINE], the IC50 entry (in series [1]; against Nitric oxide synthase 1; on Progesterone receptor; at Interstitial collagenase; on Cytochrome P450 1A2; on Cytochrome P450 2C19) was “Not Active” in each case. Further, the IC50 result against Glucocorticoid receptor was “Not Active”. In addition, the Ki result (in series [1]; on Cytochrome P450 1A2; at Cytochrome P450 2C19) was “Not Active” in each case.
Take `CC(C)[C@H]1C(=O)N2CCC[C@H]2[C@]2(O)O[C@](NC(=O)[C@@H]3C=C4c5cccc6[nH]cc(c56)C[C@H]4N(C)C3)(C(C)C)C(=O)N12` [ERGOCORNINE]: the IC50 result (in series [1]; against Nitric oxide synthase 1; on Progesterone receptor; against Interstitial collagenase; on Cytochrome P450 1A2; against Cytochrome P450 2C19) was “Not Active” throughout. The IC50 result at Glucocorticoid receptor is on record as “Not Active”. The Ki result (in series [1]; at Cytochrome P450 1A2; on Cytochrome P450 2C19) was “Not Active” throughout.
Take `Nc1nc2c(ncn2COCCO)c(=O)[nH]1` [ACYCLOVIR]: the IC50 entry (in series [1]; against Nitric oxide synthase 1; on Progesterone receptor; on Interstitial collagenase; against Cytochrome P450 1A2; against Cytochrome P450 2C19) was “Not Active” each time. At Glucocorticoid receptor, the IC50 entry is recorded as “Not Active”. The Ki entry (in series [1]; at Cytochrome P450 1A2; at Cytochrome P450 2C19) was “Not Active” each time.
For `CC(C)CN(C[C@@H](O)[C@H](Cc1ccccc1)NC(=O)O[C@H]1CCOC1)S(=O)(=O)c1ccc(N)cc1`, the IC50 result (in series [1]; at Nitric oxide synthase 1; at Progesterone receptor; at Interstitial collagenase; on Cytochrome P450 1A2; at Cytochrome P450 2C19) was “Not Active” in each case. In addition, the IC50 entry on Glucocorticoid receptor is listed as “Not Active”. For the same compound, the Ki result (in series [1]; at Cytochrome P450 1A2; on Cytochrome P450 2C19) was “Not Active” throughout.
Take `Cc1c(C)c2c(c(C)c1O)CC[C@@](C)(CCC[C@H](C)CCC[C@H](C)CCCC(C)C)O2` [ALPHA-TOCOPHEROL]: the 50% inhibitory concentration (IC50) result (in series [1]; on Nitric oxide synthase 1; on Progesterone receptor; at Interstitial collagenase; against Cytochrome P450 1A2; against Cytochrome P450 2C19) was “Not Active” throughout. Also, the IC50 result against Glucocorticoid receptor was “Not Active”. For the same compound, the Ki entry (in series [1]; on Cytochrome P450 1A2; on Cytochrome P450 2C19) was “Not Active” each time.
As for `Cc1ccc(/N=C/N(C)/C=N/c2ccc(C)cc2C)c(C)c1` [AMITRAZ], the IC50 result (in series [1]; against Nitric oxide synthase 1; at Progesterone receptor; against Interstitial collagenase; at Cytochrome P450 1A2; at Cytochrome P450 2C19) was “Not Active” throughout. In addition, the IC50 result on Glucocorticoid receptor is reported as “Not Active”. The Ki entry (in series [1]; at Cytochrome P450 1A2; on Cytochrome P450 2C19) was “Not Active” throughout.
As to CADMIUM ACETATE, the IC50 entry (in series [1]; against Nitric oxide synthase 1; at Progesterone receptor; against Interstitial collagenase; against Cytochrome P450 1A2; at Cytochrome P450 2C19) was “Not Active” in each case. Besides, at Glucocorticoid receptor, the IC50 result is listed as “Not Active”. The Ki entry (in series [1]; on Nitric oxide synthase 1; on Progesterone receptor; on Interstitial collagenase; at Cytochrome P450 1A2; on Cytochrome P450 2C19) was “Not Active” in each case. Further, at Glucocorticoid receptor, the Ki entry is listed as “Not Active”.
As to `CN(Cc1ccc(C(C)(C)C)cc1)Cc1cccc2ccccc12` [BUTENAFINE], the IC50 in series [1] (read-out: IC50) was 255 nM; against Nitric oxide synthase 1 it was “Not Active”; at Progesterone receptor, “Not Active”; against Interstitial collagenase, “Not Active”; on Cytochrome P450 1A2 it was “Not Active”; on Cytochrome P450 2C19, “Not Active”. For the same compound, at Glucocorticoid receptor, the IC50 result was “Not Active”. The Ki is 157 nM in series [1] (read-out: Ki), “Not Active” on Cytochrome P450 1A2 and “Not Active” at Cytochrome P450 2C19.
`CC1=C2C(=CO[C@H](C)[C@H]2C)C(O)=C(C(=O)O)C1=O` [CITRININ]: the IC50 result (in series [1]; against Nitric oxide synthase 1; at Progesterone receptor; against Interstitial collagenase; on Cytochrome P450 1A2; at Cytochrome P450 2C19) was “Not Active” each time. Further, the IC50 entry at Glucocorticoid receptor was “Not Active”. Moreover, the inhibition constant Ki entry (in series [1]; on Cytochrome P450 1A2; at Cytochrome P450 2C19) was “Not Active” in each case.
